Experimental findings from the NIST ThermoML archive (doi:10.1016/j.tca.2017.10.003) are described below.

For data set [1] the following is noted: Crystal; DTA.
A short description of data set [2]: Molar enthalpy of transition or fusion. The following applies: DSC.

Numbers after ± are expanded uncertainties.

As to `CCCCCCCC/C=C\CCCCCCCCOC(=O)OCCCCCCCC/C=C\CCCCCCCC` [dioleyl carbonate], in data set [1], the Normal melting temperature is -4.00 ± 6 °C. Also, the “Molar enthalpy of transition or fusion” value in data set [2] (Crystal) stood at 13.5 ± 0.813 kcal/mol.

On to `CCCCCCCCCCCCCCCCO` [1-hexadecanol], for which the Normal melting temperature in data set [1] was found to be 48.00 ± 5 °C. Moreover, in data set [2] (Crystal 2), the “Molar enthalpy of transition or fusion” value was 13.1 ± 0.813 kcal/mol.

For the compound `CCCCCCCCCCOC(=O)OCCCCCCCCCC` [didecyl carbonate], the Normal melting temperature in data set [1] was -1.00 ± 6 °C. Moreover, in data set [2] (Crystal), the “Molar enthalpy of transition or fusion” value came to 11.9 ± 0.741 kcal/mol.

As for `CCCCCCCCCCCCCCOC(=O)OCCCCCCCCCCCCCC` [ditetradecyl carbonate], the Normal melting temperature in data set [1] was determined as 35.00 ± 6 °C. Moreover, the “Molar enthalpy of transition or fusion” value in data set [2] (Crystal) turned out to be 22.6 ± 1.41 kcal/mol.

For the compound `CCCCCCCCCCCCO` [dodecan-1-ol], the Normal melting temperature in data set [1] came out at 23.00 ± 5 °C. Besides, the “Molar enthalpy of transition or fusion” value in data set [2] (Crystal) worked out at 8.33 ± 0.526 kcal/mol.

As to `CCCCCCCCCCO` [decan-1-ol], in data set [1], the Normal melting temperature was found to be 3.00 ± 5 °C. Further, in data set [2] (Crystal), the “Molar enthalpy of transition or fusion” value was found to be 7.79 ± 0.502 kcal/mol.

For the compound `CCCCCCCCCCCCCCO` [1-tetradecanol], in data set [1], the Normal melting temperature worked out at 36.00 ± 5 °C. In addition, the “Molar enthalpy of transition or fusion” value in data set [2] (Crystal) was 12.3 ± 0.765 kcal/mol.

With `CCCCCCCCCCCCCCCCOC(=O)OCCCCCCCCCCCCCCCC` [dihexadecyl carbonate], the Normal melting temperature in data set [1] was determined as 47.00 ± 6 °C. Moreover, in data set [2] (Crystal), the “Molar enthalpy of transition or fusion” value stood at 23.7 ± 1.46 kcal/mol.

Consider `CCCCCCCCCCCCCCCCCCO` [1-octadecanol], for which, in data set [1], the Normal melting temperature is 54.00 ± 5 °C. In addition, in data set [2] (Crystal), the “Molar enthalpy of transition or fusion” value was determined as 16.2 ± 1.03 kcal/mol.

`CCCCCCCCCCCCOC(=O)OCCCCCCCCCCCC` [didodecyl carbonate]: the Normal melting temperature in data set [1] turned out to be 21.00 ± 6 °C. Besides, the “Molar enthalpy of transition or fusion” value in data set [2] (Crystal) turned out to be 16.6 ± 1.05 kcal/mol.

In the case of `CCCCCCCC/C=C\CCCCCCCCO` [(Z)-9-octadecen-1-ol], the Normal melting temperature in data set [1] was -1.00 ± 5 °C. Moreover, the “Molar enthalpy of transition or fusion” value in data set [2] (Crystal) worked out at 8.41 ± 0.502 kcal/mol.

Turning to `CCCCCCCCCCCCCCCCCCOC(=O)OCCCCCCCCCCCCCCCCCC` [dioctadecyl carbonate], the Normal melting temperature in data set [1] worked out at 50.00 ± 6 °C. Moreover, the “Molar enthalpy of transition or fusion” value in data set [2] (Crystal) stood at 24.3 ± 1.48 kcal/mol.
